From patent US20250136568A1, “FUSED HETEROCYCLIC COMPOUNDS AS PI3KALPHA INHIBITORS” (Nanjing Zenshine Pharmaceuticals Co., Ltd., priority 2021, published 2025) come the findings set out here.

What all share (format): cell-based
The test system of assay [1] is PI3Kα H1047R mutation cell line MDA-MB-453. The assay is described as follows: Cell Proliferation IC50 Assay (CellTiter-Glo), MDA-MB-453. The settings on record: read-out: IC50 (μM) MDA-MB-453. An excerpt: PI3Kα H1047R mutation cell line T-47D and MDA-MB-453, E545K mutation cell line MDA-MB-361 and PI3Kα wide type cell line SK-BR-3 were purchased from Cobioer Biotech (cat. no CBP60397, CBP60386, CBP60383 and CBP60413 respectively). The CellTiter-Glo Direct Cell Proliferation Assay Kit was purchased from Prornega (cat. No. G7573)
For cell proliferation assay in each cell line: • a. Prepare complete medium (R PMI 1640, DMEM or McCoys): Add FBS and appropriate additives according to the information sheet provided by the vendor. Mix gently. • b. Prepare single cell suspension and count the cell numbers and adjust cells to appropriate density. • c. Add 80 μL of cell suspension to 96-well opaque-walled clear bottom plates according to the planned plate layout and place the plates in the CO2 incubator overnight. • d. Prepare intermediate plate: 10 μl of diluted test compounds or staurosporine solution (200×) is added to a 96 deep well plate. Then 390 μl of culture medium without FBS is added to the respective wells. • e. Transfer 20 μL of the solutions from the above intermediate plate to the wells of the plate prepared containing 80 μL of the culture medium and cells. The total dilution is 200 folds. • f. The cells were then incubated at 5% CO2, 37° C. for 72 hours. • g. Equilibrate the plate and its contents to room temperature for approximately 30 minutes. • h. Add 100 μL of CellTiter-Glo reagent to the assay plate • i. Mix contents for 10 minutes on an orbital shaker to induce cell lysis. • j. Allow the plate to incubate at room temperature for 10 minutes to stabilize luminescent signal, • k. Paste the clear bottom with white back seal and record luminescence with Varioskan LUX plate reader.
Inhibition % and IC50 value were calculated by the formula described below: […]
A general note: In ATP-based viability assays light output follows the ATP content of the culture.

Assay [2] relates to PI3Kα wide type cell line SK-BR-3. The assay is described as follows: Cell Proliferation IC50 Assay (CellTiter-Glo), SK-BR-3. The note with it: SK-BR-3 (PI3Kα wild type), 72 hours, CellTiter-Glo, read-out: IC50 (μM) SK-BR-3. In outline: (§1)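 Cells were seeded and left overnight, then exposed to serially diluted compound (200-fold final dilution) for 72 h at 37 °C, 5% CO2. Viability was read by CellTiter-Glo luminescence. Percent inhibition and IC50 were calculated from the signal.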

Assay [3] concerns PI3Kα H1047R mutation cell line T-47D. The assay is described as follows: Cell Proliferation IC50 Assay (CellTiter-Glo), T-47D. The note with it: T47D (H1047R), 72 hours, CellTiter-Glo, read-out: IC50 (μM) T47D. The method in brief:
as §1

Setting [4] is: Homo sapiens, MDA-MB-453 (H1047R), 72 hours, CellTiter-Glo.
The mark [5] stands for this setting: MDA-MB-453 (H1047R), 72 hours, CellTiter-Glo.

Read-outs that look alike come from different tables or passages of the source.

Consider `Cc1cc(C(C)Nc2ccccc2C(=O)O)c2oc(-c3ccc(N4CCOCC4)cc3)cc(=O)c2c1` (stereo not drawn) [Example 42, 2-((1-(6-methyl-2-(4-morpholinophenyl)-4-oxo-4H-chromen-8-yl)ethyl)amino)benzoic acid], for which the IC50 (commonly the concentration at which inhibition is half-maximal) in assay [1] (setting [4]) was 0.2 µM; in assay [2] (Homo sapiens) it was more than 10 µM; in assay [3] (Homo sapiens, T47D, 72 h), 0.21 µM.

Consider `Cc1cc(C(C)Nc2ccccc2C(=O)O)c2oc(C3=CCN(c4ccccc4)CC3)cc(=O)c2c1` (stereo not drawn) [Example 19, 2-((1-(6-methyl-4-oxo-2-(1-phenyl-1,2,3,6-tetrahydropyridin-4-yl)-4H-chromen-8-yl)ethyl)amino)benzoic acid], for which the IC50 in assay [1] (setting [4]) was 1.39 µM; in assay [2] (Homo sapiens), more than 10 µM; in assay [3] (Homo sapiens, T47D, 72 h), 0.35 µM.

Take `Cc1cc(C(C)Nc2ccccc2C(=O)O)c2oc(C3=CCN(C(=O)OC(C)(C)C)CC3)cc(=O)c2c1` (stereo not drawn) [Example 14, 2-((1-(2-(1-(tert-butoxycarbonyl)-1,2,3,6-tetrahydropyridin-4-yl)-6-methyl-4-oxo-4H-chromen-8-yl)ethyl)amino)benzoic acid]: the IC50 is 1.27 µM in assay [1] (setting [4]); more than 10 µM in assay [2] (Homo sapiens); 1 µM in assay [3] (Homo sapiens, T47D, 72 h).

As to `Cc1cc(C(C)Nc2ccccc2C(=O)O)c2oc(C3CCN(C(=O)OC(C)(C)C)CC3)cc(=O)c2c1` (stereo not drawn) [Example 13, 2-((1-(2-(1-(tert-butoxycarbonyl)piperidin-4-yl)-6-methyl-4-oxo-4H-chromen-8-yl)ethyl)amino)benzoic acid], the IC50 in assay [1] (setting [4]) is 2.29 µM; in assay [2] (Homo sapiens), more than 10 µM; in assay [3] (Homo sapiens, T47D, 72 h) it was 1.33 µM.

As to `Cc1cc(C(C)Nc2ccccc2C(=O)O)c2oc(-c3cnoc3)cc(=O)c2c1` (stereo not drawn) [Example 39, 2-((1-(2-(isoxazol-4-yl)-6-methyl-4-oxo-4H-chromen-8-yl)ethyl)amino)benzoic acid], the IC50 is 2.49 µM in assay [1] (setting [4]); more than 10 µM in assay [2] (Homo sapiens); 1.98 µM in assay [3] (Homo sapiens, T47D, 72 h).

Turning to `Cc1ccc(-c2cc(=O)c3cc(C)cc(C(C)Nc4ccccc4C(=O)O)c3o2)cc1` (stereo not drawn) [Example 2, 2-((1-(6-methyl-4-oxo-2-(p-tolyl)-4H-chromen-8-yl)ethyl)amino)benzoic acid], the IC50 in assay [1] (setting [4]) is 0.39 µM; in assay [2] (Homo sapiens), more than 10 µM; in assay [3] (Homo sapiens, T47D, 72 h) it was 0.16 µM.

Consider `Cc1cc(C(C)Nc2ccccc2C(=O)O)c2oc(-c3ccncc3)cc(=O)c2c1` (stereo not drawn) [Example 33, 2-((1-(6-methyl-4-oxo-2-(pyridin-4-yl)-4H-chromen-8-yl)ethyl)amino)benzoic acid], for which the IC50 was 0.42 µM in assay [1] (setting [4]); more than 10 µM in assay [2] (Homo sapiens); 0.32 µM in assay [3] (Homo sapiens, T47D, 72 h).

With `Cc1cc([C@@H](C)Nc2ccccc2C(=O)O)c2oc(-c3ccc4nn(C)cc4c3)c(C)c(=O)c2c1` [Example 49A, (R)-2-((1-(3,6-dimethyl-2-(2-methyl-211-indazol-5-yl)-4-oxo-4H-chromen-8-yl)ethyl)amino)benzoic acid], the figures for the IC50 in assay [1] (setting [5]), in assay [2] and in assay [3] were 0.09 µM, more than 10 µM and 0.07 µM, respectively.

Consider `Cc1cc(C(C)Nc2ccccc2C(=O)O)c2oc(C3CCN(C(=O)C4CC4)CC3)cc(=O)c2c1` (stereo not drawn) [Example 30, 2-((1-(2-(1-(cyclopropanecarbonyl)piperidin-4-yl)-6-methyl-4-oxo-4H-chromen-8-yl)ethyl)amino)benzoic acid], for which the IC50 is 4 µM in assay [1] (setting [4]); more than 10 µM in assay [2] (Homo sapiens); 1.87 µM in assay [3] (Homo sapiens, T47D, 72 h).

Turning to `Cc1cc(C(C)Nc2ccccc2C(=O)O)c2oc(-c3ccc4c(c3)C(=O)N(C)C4)cc(=O)c2c1` (stereo not drawn) [Example 23, 2-((1-(6-methyl-2-(2-methyl-3-oxoisoindolin-5-yl)-4-oxo-4H-chromen-8-yl)ethyl)amino)benzoic acid], the IC50 in assay [1] (setting [4]) was 6.3 µM; in assay [2] (Homo sapiens), more than 10 µM; in assay [3] (Homo sapiens, T47D, 72 h) it was 3.2 µM.

As to `Cc1cc([C@H](C)Nc2ccccc2C(=O)O)c2oc(-c3ccc4c(c3)CN(C)C4=O)c(C)c(=O)c2c1` (single isomer, unassigned) [Example 20A], the IC50 in assay [1] (setting [4]) was more than 10 µM; in assay [2] (Homo sapiens) it was more than 10 µM; in assay [3] (Homo sapiens, T47D, 72 h) it was more than 10 µM.

For `Cc1cc(C(C)Nc2ccccc2C(=O)O)c2oc(-c3cnn(C)c3)cc(=O)c2c1` (stereo not drawn) [Example 10, 2-((1-(6-methyl-2-(1-methyl-1H-pyrazol-4-yl)-4-oxo-4H-chromen-8-yl)ethyl)amino)benzoic acid], the IC50 in assay [1] (setting [4]) was 2.44 µM; in assay [2] (Homo sapiens), more than 10 µM; in assay [3] (Homo sapiens, T47D, 72 h), 0.86 µM.

As for `Cc1cc(C(C)Nc2ccccc2C(=O)O)c2oc(C3CCN(C(=O)C(F)(F)F)CC3)cc(=O)c2c1` (stereo not drawn) [Example 29, 2-((1-(6-methyl-4-oxo-2-(1-(2,2,2-trifluoroacetyl)piperidin-4-yl)-4H-chromen-8-yl)ethyl)amino)benzoic acid], the IC50 in assay [1] (setting [4]) is more than 10 µM; in assay [2] (Homo sapiens) it was more than 10 µM; in assay [3] (Homo sapiens, T47D, 72 h), 4.13 µM.

Consider `Cc1cc(C(C)Nc2ccccc2S(N)(=O)=O)c2oc(-c3ccc4nn(C)cc4c3)c(C)c(=O)c2c1` (stereo not drawn) [Example 131, 2-((1-(3,6-dimethyl-2-(2-methyl-2H-indazol-5-yl)-4-oxo-4H-chromen-8-yl)ethyl)amino)benzenesulfonamide], for which the IC50 is 0.059 µM in assay [1] (Homo sapiens, MDA-MB-453, 72 h); more than 10 µM in assay [2] (Homo sapiens); 0.055 µM in assay [3] (Homo sapiens).

Regarding `Cc1cc(C(C)Nc2ccccc2C(=O)O)c2oc(-c3ccc4nn(C)cc4c3)cc(=O)c2c1` (stereo not drawn) [Example 38], the concentration for half-maximal inhibition (IC50) in assay [1] (setting [4]) was 0.15 µM; in assay [2] (Homo sapiens) it was more than 10 µM; in assay [3] (Homo sapiens, T47D, 72 h), 0.08 µM.

Take `Cc1cc(C(C)Nc2ccccc2C(=O)O)c2oc(C3CCNCC3)cc(=O)c2c1` (stereo not drawn) [Example 15, 2-((1-(6-methyl-4-oxo-2-(piperidin-4-yl)-4H-chromen-8-yl)ethyl)amino)benzoic acid]: the IC50 in assay [1] (setting [4]) was more than 10 µM; in assay [2] (Homo sapiens), more than 10 µM; in assay [3] (Homo sapiens, T47D, 72 h) it was more than 10 µM.

For `Cc1cc(C(C)Nc2ccccc2C(=O)O)c2oc(-c3ccc4c(c3)CN(C)C4=O)cc(=O)c2c1` (stereo not drawn) [Example 6, 2-((1-(6-methyl-2-(2-methyl-1-oxoisoindolin-5-yl)-4-oxo-4H-chromen-8-yl)ethyl)amino)benzoic acid], the IC50 was 0.29 µM in assay [1] (setting [4]); more than 10 µM in assay [2] (Homo sapiens); 0.23 µM in assay [3] (Homo sapiens, T47D, 72 h).

For the molecule `Cc1cc(C(C)Nc2ccccc2C(=O)O)c2oc(-c3ccc4c(c3)OCO4)cc(=O)c2c1` (stereo not drawn) [Example 4, 2-((1-(2-(benzo[d][1,3]dioxol-5-yl)-6-methyl-4-oxo-4H-chromen-8-yl)ethyl)amino)benzoic acid], the IC50 in assay [1] (setting [4]) was 0.75 µM; in assay [2] (Homo sapiens), more than 10 µM; in assay [3] (Homo sapiens, T47D, 72 h), 0.56 µM.

As to `Cc1cc(C(C)Nc2ccccc2C(=O)O)c2oc(-c3ccc4c(c3)CN(C)C4=O)c(C)c(=O)c2c1` (stereo not drawn) [Example 20, 2-((1-(3,6-dimethyl-2-(2-methyl-1-oxoisoindolin-5-yl)-4-oxo-4H-chromen-8-yl)ethyl)amino)benzoic acid], the IC50 in assay [1] (setting [4]) was 0.18 µM; in assay [2] (Homo sapiens), more than 10 µM; in assay [3] (Homo sapiens, T47D, 72 h), 0.12 µM.

As to `Cc1cc(C(C)Nc2ccccc2C(=O)O)c2oc(-c3cnn(CC(C)(C)O)c3)cc(=O)c2c1` (stereo not drawn) [Example 11, 2-((1-(2-(1-(2-hydroxy-2-methylpropyl)-1H-pyrazol-4-yl)-6-methyl-4-oxo-4H-chromen-8-yl)ethyl)amino)benzoic acid], the IC50 was 2.49 µM in assay [1] (setting [4]); more than 10 µM in assay [2] (Homo sapiens); 1.98 µM in assay [3] (Homo sapiens, T47D, 72 h).

In the case of `C[C@H](Nc1ccccc1C(=O)O)c1cc(Cl)cc2c(=O)cc(-c3ccc4nn(C)cc4c3)oc12` (single isomer, unassigned) [Example 98A], the IC50 in assay [1] (setting [5]) is 0.09 µM; in assay [2] it was more than 10 µM; in assay [3] it was 0.038 µM.

For `Cc1cc([C@H](C)Nc2ccccc2C(=O)O)c2oc(-c3ccc4nn(C)cc4c3)cc(=O)c2c1` [Example 38A, (S)-2-((1-(6-methyl-2-(2-menthyl-2H-indazol-5-yl)-4-oxo-411-chromen-8-yl)ethyl)amino)benzoic acid], the IC50 in assay [1] (setting [5]), in assay [2] and in assay [3] was more than 10 µM each time.
